# Data from patent publication US11878973B2, “Bicyclic compounds and their uses” (NOVARTIS AG, priority 2021, dated 2024).
# Like-named read-outs stand apart in the source and are kept apart here.
# Legend:
# SW48 cells = experiment: Proliferation assay SW48 (CellTiterGlo, 96 hours)
# Experimental: The WRN-knockdown insensitive colon carcinoma cell line DLD-1 (RRID: CVCL_0248) was obtained from the Korean Cell Line Bank (KCLB), and used to generate a derivative in which the endogenous WRN gene copies were knocked out by CRISPR-mediated editing using standard CRISPR methods. The resulting cell line, DLD1-WRN—KO, was used to assess potential off-target compound effects.
# All cells were maintained at 37° C. in a humidified 5% CO2 incubator.
# For data analysis, the assay background signal that was determined in wells containing medium, but no cells, was subtracted from all other data points prior to further calculations. The extent of growth inhibition and potential cell kill was assessed by comparing the ATP levels (measured using CellTiterGlo, Promega) in compound-treated cells with those present at the time of compound addition. […] 100%, 0% and −100% signify absence of growth inhibition, growth stasis, and complete cell kill, respectively. Compound concentrations leading to half-maximal growth inhibition (G150) and residual cell viability at the highest tested compound concentration (Data (cmax), expressed in percent) were routinely calculated. Data analysis can also be carried out using commercially available software designed to derive IC50 values using 4-parameter fits (e.g. GraphPad Prism, XL fit). The reported GI50 values are the geometrical means of at least 2 independent replicates.
# WRN helicase = WRN helicase (Homo sapiens (Human), UniProt Q14191); experiment: In vitro enzymatic activity assay on WRN helicase (DNA dependent ATPase assay, ADP-Glo); assay type: biochemical; conditions: geometric means of at least 2 determinations; read-out: WRN ATPase Activity (IC50)
# WRN helicase, sequence (Q14191 517-1238): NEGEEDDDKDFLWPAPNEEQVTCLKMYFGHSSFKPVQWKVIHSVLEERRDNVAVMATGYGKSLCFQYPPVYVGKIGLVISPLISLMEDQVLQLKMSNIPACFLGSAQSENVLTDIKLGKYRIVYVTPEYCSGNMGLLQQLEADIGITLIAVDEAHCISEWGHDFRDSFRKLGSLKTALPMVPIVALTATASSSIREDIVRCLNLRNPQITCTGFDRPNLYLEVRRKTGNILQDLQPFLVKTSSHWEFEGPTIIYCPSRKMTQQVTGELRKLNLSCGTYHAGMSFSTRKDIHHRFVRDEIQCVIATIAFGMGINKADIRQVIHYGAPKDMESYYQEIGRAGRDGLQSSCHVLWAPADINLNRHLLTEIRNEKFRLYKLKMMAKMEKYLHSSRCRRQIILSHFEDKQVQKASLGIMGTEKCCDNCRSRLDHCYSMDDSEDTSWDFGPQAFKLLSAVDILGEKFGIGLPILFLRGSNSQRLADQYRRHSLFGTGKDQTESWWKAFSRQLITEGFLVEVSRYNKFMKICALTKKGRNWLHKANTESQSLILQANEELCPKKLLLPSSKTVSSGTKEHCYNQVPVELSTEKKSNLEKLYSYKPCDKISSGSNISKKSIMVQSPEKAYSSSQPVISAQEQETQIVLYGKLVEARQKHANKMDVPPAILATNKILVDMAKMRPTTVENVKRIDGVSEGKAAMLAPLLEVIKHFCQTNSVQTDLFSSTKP
# Outline: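 The WRN helicase core (aa N517-P1238), 10 nM, hydrolysed 300 µM ATP in the presence of 0.2 nM FLAP26 DNA (Tris pH 7.5, 2 mM MgCl2, 50 mM NaCl) for 30 min at room temperature. ADP formed was quantified by ADP-Glo luminescence.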
# DLD1-WRN-KO cells = experiment: Proliferation assay DLD1-WRN-KO (CellTiterGlo, 96 hours; off-target effects); conditions: read-out: Proliferation Assay DLD1-WRN-KO (GI50)
# [1] = Homo sapiens, SW48, read-out: Proliferation Assay SW48 (GI50)
# [2] = read-out: Proliferation Assay SW48 (GI50), SW48 cell line, geometric means of at least 2 determinations
# [3] = DLD1-WRN-KO cell line, geometric means of at least 2 determinations
SMILES,GI50 (SW48 cells; [1]) [nM],IC50 (WRN helicase) [nM],GI50 (DLD1-WRN-KO cells; Homo sapiens) [nM],GI50 (SW48 cells; [2]) [nM],GI50 (DLD1-WRN-KO cells; [3]) [nM]
"CCc1c(N2CCN(C(=O)c3ncccc3O)CC2)c(=O)n2nc(N3CCCC(F)C3)nc2n1CC(=O)Nc1ccc(C(F)(F)F)nc1Cl (racemic) [Example 16, rac-N-(2-chloro-6-(trifluoromethyl)pyridin-3-yl)-2-(5-ethyl-2-(3-fluoropiperidin-1-yl)-6-(4-(3-hydroxypicolinoyl)piperazin-1-yl)-7-oxo-[1,2,4]triazolo[1,5-a]pyrimidin-4(7H)-yl)acetamide]",320,230,> 10000,,
"CCc1c(N2CCN(C(=O)c3nccc(Cl)c3O)CC2)c(=O)n2nc(C3=CCOCC3)nc2n1CC(=O)Nc1ccc(C(F)(F)F)c(F)c1C [Example 37, 2-(6-(4-(4-chloro-3-hydroxypicolinoyl)piperazin-1-yl)-2-(3,6-dihydro-2H-pyran-4-yl)-5-ethyl-7-oxo-[1,2,4]triazolo[1,5-a]pyrimidin-4(7H)-yl)-N-(3-fluoro-2-methyl-4-(trifluoromethyl)phenyl)acetamide]",30,20,> 10000,,
"CCc1c(N2CCN(C(=O)c3nccc(C)c3O)CC2)c(=O)n2nc(C3=CCOCC3)nc2n1CC(=O)Nc1ccc(C(F)(F)F)cc1C [Example 66, 2-(2-(3,6-dihydro-2H-pyran-4-yl)-5-ethyl-6-(4-(3-hydroxy-4-methylpicolinoyl)piperazin-1-yl)-7-oxo-[1,2,4]triazolo[1,5-a]pyrimidin-4(7H)-yl)-N-(2-methyl-4-(trifluoromethyl)phenyl)acetamide]",90,40,> 10000,,
"CCc1c(N2CCN(C(=O)c3ncnc(C)c3O)[C@H](C)[C@@H]2C)c(=O)n2nc(C3=CCOCC3)nc2n1CC(=O)Nc1ccc(C(F)(F)F)cc1Cl (single isomer, unassigned) [Example 122]",,150,,100,> 10000
"CCc1c(N2CCN(C(=O)c3ncccc3O)CC2)c(=O)n2nc(C3=CC[C@H](OC)CC3)nc2n1CC(=O)Nc1ccc(C(F)(F)F)nc1Cl (single isomer, unassigned) [Example 25a, ((R)—N-(2-chloro-6-(trifluoromethyl)pyridin-3-yl)-2-(5-ethyl-6-(4-(3-hydroxypicolinoyl)piperazin-1-yl)-2-(4-methoxycyclohex-1-en-1-yl)-7-oxo-[1,2,4]triazolo[1,5-a]pyrimidin-4(7H)-yl)acetamide) or ((S)—N-(2-chloro-6-(trifluoromethyl)pyridin-3-yl)-2-(5-ethyl-6-(4-(3-hydroxypicolinoyl)piperazin-1-yl)-2-(4-methoxycyclohex-1-en-1-yl)-7-oxo-[1,2,4]triazolo[1,5-a]pyrimidin-4(7H)-yl)acetamide)]",,160,,50,> 10000
"CCc1c(N2CCN(C(=O)c3ncnc(C)c3O)CC2)c(=O)n2nc(C3=CCOCC3)nc2n1CC(=O)Nc1ccc(C(F)(F)F)nc1Cl [Example 47, N-(2-chloro-6-(trifluoromethyl)pyridin-3-yl)-2-(2-(3,6-dihydro-2H-pyran-4-yl)-5-ethyl-6-(4-(5-hydroxy-6-methylpyrimidine-4-carbonyl)piperazin-1-yl)-7-oxo-[1,2,4]triazolo[1,5-a]pyrimidin-4(7H)-yl)acetamide]",170,140,> 10000,,
"CCc1c(N2CCN(C(=O)c3ncncc3O)CC2)c(=O)n2nc(C3=CCOCC3)nc2n1CC(=O)Nc1ccc(S(F)(F)(F)(F)F)cc1Cl [Example 52, N-(2-chloro-4-(pentafluorosulfanyl)phenyl)-2-(2-(3,6-dihydro-2H-pyran-4-yl)-5-ethyl-6-(4-(5-hydroxypyrimidine-4-carbonyl)piperazin-1-yl)-7-oxo-[1,2,4]triazolo[1,5-a]pyrimidin-4(7H)-yl)acetamide]",40,40,> 10000,,
"CCc1c(N2CCN(C(=O)c3ncccc3O)CC2)c(=O)n2nc(N3CCC(N(C)CC(F)F)CC3)nc2n1CC(=O)Nc1ccc(C(F)(F)F)nc1Cl [Example 20, N-(2-chloro-6-(trifluoromethyl)pyridin-3-yl)-2-(2-(4-((2,2-difluoroethyl)(methyl)amino)piperidin-1-yl)-5-ethyl-6-(4-(3-hydroxypicolinoyl)piperazin-1-yl)-7-oxo-[1,2,4]triazolo[1,5-a]pyrimidin-4(7H)-yl)acetamide]",100,310,> 10000,,
"CCc1c(N2CCN(C(=O)c3ncc(Cl)cc3O)CC2)c(=O)n2nc(C3=CCOCC3)nc2n1CC(=O)Nc1ccc(C(F)(F)F)cc1C [Example 65, 2-(6-(4-(5-chloro-3-hydroxypicolinoyl)piperazin-1-yl)-2-(3,6-dihydro-2H-pyran-4-yl)-5-ethyl-7-oxo-[1,2,4]triazolo[1,5-a]pyrimidin-4(7H)-yl)-N-(2-methyl-4-(trifluoromethyl)phenyl)acetamide]",80,50,7800,,
"Cc1cc(Cl)ccc1NC(=O)Cn1c(C)c(N2CCN(C(=O)c3ncccc3O)CC2)c(=O)n2nc(C3=CCOCC3)nc12 [Example 105, N-(4-chloro-2-methylphenyl)-2-(2-(3,6-dihydro-2H-pyran-4-yl)-6-(4-(3-hydroxypicolinoyl)piperazin-1-yl)-5-methyl-7-oxo-[1,2,4]triazolo[1,5-a]pyrimidin-4(7H)-yl)acetamide]",1130,200,> 10000,,
"CCc1c(N2CCN(C(=O)c3ncccc3O)CC2)c(=O)n2nc(N3CCC[C@@H](F)C3)nc2n1CC(=O)Nc1ccc(C(F)(F)F)cc1Cl (single isomer, unassigned) [Example 15b, ((R)—N-(2-chloro-4-(trifluoromethyl)phenyl)-2-(5-ethyl-2-(3-fluoropiperidin-1-yl)-6-(4-(3-hydroxypicolinoyl)piperazin-1-yl)-7-oxo-[1,2,4]triazolo[1,5-a]pyrimidin-4(7H)-yl)acetamide) or ((S)—N-(2-chloro-4-(trifluoromethyl)phenyl)-2-(5-ethyl-2-(3-fluoropiperidin-1-yl)-6-(4-(3-hydroxypicolinoyl)piperazin-1-yl)-7-oxo-[1,2,4]triazolo[1,5-a]pyrimidin-4(7H)-yl)acetamide)]",,120,,360,> 10000
"CCc1c(N2CCN(C(=O)c3nccc(F)c3O)CC2)c(=O)n2nc(N3CCOCC3)nc2n1CC(=O)Nc1ccc(C(F)(F)F)cc1Cl [Example 3, N-(2-chloro-4-(trifluoromethyl)phenyl)-2-(5-ethyl-6-(4-(4-fluoro-3-hydroxypicolinoyl)piperazin-1-yl)-2-morpholino-7-oxo-[1,2,4]triazolo[1,5-a]pyrimidin-4(7H)-yl)acetamide]",90,70,> 10000,,
"CCc1c(N2CCN(C(=O)c3nccc(Cl)c3O)CC2)c(=O)n2nc(C3=COCCO3)nc2n1CC(=O)Nc1ccc(C(F)(F)F)c(F)c1C [Example 79, 2-(6-(4-(4-chloro-3-hydroxypicolinoyl)piperazin-1-yl)-2-(5,6-dihydro-1,4-dioxin-2-yl)-5-ethyl-7-oxo-[1,2,4]triazolo[1,5-a]pyrimidin-4(7H)-yl)-N-(3-fluoro-2-methyl-4-(trifluoromethyl)phenyl)acetamide]",500,40,> 10000,,
"CCc1c(N2CCN(C(=O)c3ncccc3O)CC2)c(=O)n2nc(-c3cccnc3)nc2n1CC(=O)Nc1ccc(C(F)(F)F)cc1C [Example 76, 2-(5-ethyl-6-(4-(3-hydroxypicolinoyl)piperazin-1-yl)-7-oxo-2-(pyridin-3-yl)-[1,2,4]triazolo[1,5-a]pyrimidin-4(7H)-yl)-N-(2-methyl-4-(trifluoromethyl)phenyl)acetamide]",190,80,> 10000,,
"CCc1c(N2CCN(C(=O)c3ncccc3O)CC2)c(=O)n2nc(C3=CCNCC3)nc2n1CC(=O)Nc1ccc(C(F)(F)F)cc1C [Example 112, 2-(5-ethyl-6-(4-(3-hydroxypicolinoyl)piperazin-1-yl)-7-oxo-2-(1,2,3,6-tetrahydropyridin-4-yl)-[1,2,4]triazolo[1,5-a]pyrimidin-4(7H)-yl)-N-(2-methyl-4-(trifluoromethyl)phenyl)acetamide]",7940,510,> 10000,,
"CCc1c(N2CCN(C(=O)c3ncccc3O)CC2)c(=O)n2nc(C3=CCOCC3)nc2n1CC(=O)Nc1cc(F)c(C(F)(F)F)nc1Cl [Example 99, N-(2-chloro-5-fluoro-6-(trifluoromethyl)pyridin-3-yl)-2-(2-(3,6-dihydro-2H-pyran-4-yl)-5-ethyl-6-(4-(3-hydroxypicolinoyl)piperazin-1-yl)-7-oxo-[1,2,4]triazolo[1,5-a]pyrimidin-4(7H)-yl)acetamide]",280,180,> 10000,,
"CCc1c(N2CCN(C(=O)c3ncccc3O)CC2)c(=O)n2nc(C3=CC[C@H](OC)CC3)nc2n1CC(=O)Nc1ccc(C(F)(F)F)cc1C (single isomer, unassigned) [Example 80a, ((R)-2-(5-ethyl-6-(4-(3-hydroxypicolinoyl)piperazin-1-yl)-2-(4-methoxycyclohex-1-en-1-yl)-7-oxo-[1,2,4]triazolo[1,5-a]pyrimidin-4(7H)-yl)-N-(2-methyl-4-(trifluoromethyl)phenyl)acetamide) or ((S)-2-(5-ethyl-6-(4-(3-hydroxypicolinoyl)piperazin-1-yl)-2-(4-methoxycyclohex-1-en-1-yl)-7-oxo-[1,2,4]triazolo[1,5-a]pyrimidin-4(7H)-yl)-N-(2-methyl-4-(trifluoromethyl)phenyl)acetamide)]",,70,,70,> 10000
